# US5731322A, “Octahydro-1H-pyrrolo[3,2-g]and [2,3-g]isoquinoline derivatives” (SmithKline Beecham S.p.A., priority 1993, dated 1998)
# Columns and labels:
# [1] = molecular target: T1, mu opioid receptor (Mus musculus, UniProt P42866); assay: Opioid radioligand binding assay, mu ([3H]-DAMGO), mouse brain membranes; details: ratio of Ki, mu ([3H]-DAMGO) vs delta
# T1 construct: Mouse brain membranes were prepared as described by Kosterlitz; from tissue; host or cells: mouse brain membranes
# Method: (§1) Mouse brain membranes were prepared as described by Kosterlitz (Br. J. Pharmacol., 1981, 73, 939.). […] The binding of the mu ligand [^3 H]-DAMGO (Eur. J. Pharmacol., 1989, 166, 213) and of the kappa ligand [^3 H]-U69593 (Excerpta Medica, 1990, 211) were carried out at 0.5 nM. The non-specific binding was determined in presence of naloxone (10 μM) for all tritiated ligands. […] The IC50 obtained were used to calculate the inhibitory constants (Ki) accordingly to the Cheng and Prusoff relation (Biochem. Pharmacol., 1973, 22, 3099).
# [2] = molecular target: T2, kappa opioid receptor (Mus musculus, UniProt P33534); assay: Opioid radioligand binding assay, kappa ([3H]-U69593), mouse brain membranes; details: ratio of Ki, kappa ([3H]-U69593) vs delta
# T2 construct: Mouse brain membranes were prepared as described by Kosterlitz; from tissue; host or cells: mouse brain membranes
# T2 sequence (P33534 whole entry): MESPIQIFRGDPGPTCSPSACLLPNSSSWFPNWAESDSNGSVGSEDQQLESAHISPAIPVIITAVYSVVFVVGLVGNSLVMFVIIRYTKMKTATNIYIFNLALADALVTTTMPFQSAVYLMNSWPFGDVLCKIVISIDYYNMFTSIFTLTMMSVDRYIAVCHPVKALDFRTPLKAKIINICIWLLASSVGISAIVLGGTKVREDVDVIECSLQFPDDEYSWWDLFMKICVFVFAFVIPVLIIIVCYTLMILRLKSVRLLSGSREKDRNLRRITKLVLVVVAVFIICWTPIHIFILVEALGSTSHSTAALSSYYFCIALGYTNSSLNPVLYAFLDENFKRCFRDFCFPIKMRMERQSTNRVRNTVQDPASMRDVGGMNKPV
# Method: as §1
# [3] = molecular target: T3, delta receptor (Mus musculus, UniProt P32300); assay: Opioid radioligand binding assay, delta ([3H]-DADLE in presence of unlabelled DAMGO), mouse brain membranes; parameters: Mouse brain membranes were prepared as described by Kosterlitz; from tissue; host or cells: mouse brain membranes; details: [3H]-DADLE 1.3 nM, 40 nM DAMGO
# T3 sequence (P32300 whole entry): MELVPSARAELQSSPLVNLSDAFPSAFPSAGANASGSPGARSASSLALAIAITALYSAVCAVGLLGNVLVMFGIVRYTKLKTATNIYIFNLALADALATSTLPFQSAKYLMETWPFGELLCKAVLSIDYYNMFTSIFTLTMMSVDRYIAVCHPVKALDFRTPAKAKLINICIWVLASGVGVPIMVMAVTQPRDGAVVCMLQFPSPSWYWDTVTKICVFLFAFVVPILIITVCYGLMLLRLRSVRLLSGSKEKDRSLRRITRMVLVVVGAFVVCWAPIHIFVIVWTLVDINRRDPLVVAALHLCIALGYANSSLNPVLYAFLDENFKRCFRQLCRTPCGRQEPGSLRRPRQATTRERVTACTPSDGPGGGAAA
# Method: as §1
# [4] = molecular target: T3, delta receptor; assay: Mouse vas deferens (MVD) bioassay, delta agonist/antagonist studies, electrically stimulated tissue; format: cell-based, mouse (CD-1); parameters: Vasa deferentia were obtained from CD-1 mice; from tissue; host or cells: vas deferens of CD-1 mice
# Method: Vasa deferentia were obtained from CD-1 mice and were suspended in a Mg^2+ -free Krebs buffer at 37° C. For the delta agonist/antagonist studies, the tissues were electrically stimulated with pulse trains having the following parameters: train duration 50 ms, stimulus duration 2 ms, frequency of stimuli 50 Hz, maximal voltage 60-70 V, train frequency 0.1 Hz. Concentration response curves for each compounds were constructed cumulatively. Linear regression analysis and IC50 concentrations were evaluated according to Tallarida and Murray (Manual of Pharmacological Calculations, Springer Verlag N.Y., 1981).
# T1 sequence (P42866 whole entry): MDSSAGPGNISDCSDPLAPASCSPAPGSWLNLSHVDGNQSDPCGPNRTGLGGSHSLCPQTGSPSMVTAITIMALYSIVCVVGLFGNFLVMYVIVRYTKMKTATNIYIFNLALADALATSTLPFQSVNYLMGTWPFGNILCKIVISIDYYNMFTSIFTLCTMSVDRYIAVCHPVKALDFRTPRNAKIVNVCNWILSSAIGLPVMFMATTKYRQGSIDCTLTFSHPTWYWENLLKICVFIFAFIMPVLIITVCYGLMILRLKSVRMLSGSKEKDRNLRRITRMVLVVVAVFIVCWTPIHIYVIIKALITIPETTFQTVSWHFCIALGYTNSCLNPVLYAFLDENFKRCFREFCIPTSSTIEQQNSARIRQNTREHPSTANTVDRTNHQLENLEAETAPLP
Structure (SMILES),Ki mu/Ki delta [1],Ki kappa/Ki delta [2],Ki [3] [nM],"IC50 ([4]; mouse vas deferens, delta agonist study, read-out: IC50 in the MVD preparation (delta agonists)) [nM]",Kb [4] [nM]
"CCN1CC[C@@]2(c3cccc(O)c3)Cc3[nH]c(C(=O)N(CC)CC)c(C)c3C[C@@H]2C1.Cl (single isomer, unassigned) [Example 34, (-)-trans-2-Diethylaminocarbonyl-6-ethyl-8a-(3-hydroxyphenyl)-3-methyl-4,4a,5,6,7,8,8a,9-octahydro-1H-pyrrolo[2,3-g]isoquinoline hydrochloride]",110,1105,0.73,26,
"CCN(CC)C(=O)c1[nH]c2c(c1C)C[C@@H]1CN(C)CC[C@@]1(c1cccc(O)c1)C2.Cl (racemic) [Example 10, (±)-trans-2-Diethylaminocarbonyl-3,6-dimethyl-8a-(3-hydroxyphenyl)-4,4a,5,6,7,8,8a,9-octahydro-1H-pyrrolo[2,3-g]isoquinoline hydrochloride]",45,403,2.15,,7
